Results: patent publication US6369225B1, “Compounds having activity as inhibitors of cytochrome P450RAI” (Allergan Sales, Inc., priority 2000, dated 2002)

System: skin of hairless mice
Test: topical skin irritation test in hairless mice
Type: in vivo, mouse
Conditions: topical in acetone, once daily days 1 through 5, mean ±SD, range 0-21
Source text: Mice were housed individually throughout the dosing period.
Doses are disclosed as nmol/25 g.
The grading scale used is as follows:
Values can range from 0-9.
Values can range from 0-8.

| Structure (SMILES) | Cutaneous Toxicity Score (Blackjack Score) (100 nmole (nmol/25 g)) | Cutaneous Toxicity Score (Blackjack Score) (1000 nmole (nmol/25 g)) | Cutaneous Toxicity Score (Blackjack Score) (300 nmole (nmol/25 g)) |
| --- | --- | --- | --- |
| CC1(C)CCC(=O)c2ccc(C#Cc3ccc(CC(=O)O)cc3)cc21 [Compound 5, 4-[(8,8-Dimethyl-5-oxo-5,6,7,8-tetrahydro-naphthalene-2-yl-ethynyl)-phenyl]-acetic Acid] | 0 | 6 ± 3 |  |
| CN(C1CC1)C1CCC(C)(C)c2cc(C#Cc3ccc(CC(=O)O)cc3)ccc21 (centres unmarked) [Compound 8, 4-[(5-(Cyclopropyl-methyl-amino)-8,8-dimethyl-5,6,7,8-tetrahydro-naphthalene-2-yl-ethynyl)-phenyl]-acetic Acid] | 5 ± 2 | 12 ± 1 | 8 ± 3 |
